Values after ≈ are worked out from the molar mass of the structure shown.
Assays:
Type in all cases: cell-based
[1] = test system: C. tropicalis; experiment: In vitro antibacterial (antifungal) test, two-fold dilution MIC; conditions: Candida tropicalis, RPMI 1640, culture 2-7 days
Procedure: (§1) In vitro antibacterial experiments of 25 compounds as anti-bacterial and anti-cancer compounds in the patent were tested using 14 kinds of bacteria. Tested bacteria: C. albicans, C. tropicalis, C. neoformans, E. floccosum, M. gypseum, A. niger, S. schenekn, C. parapsilosis, C. glabrata, C. Krusei, Trichoderma, Gibberella, Setrosphaeria turcica, Fusarium Oxysporum Vasinfectum. (Bacteria were from the Dermatology Hospital of Chinese Academy of Medical Sciences, Nanjing, China.)
(§2) The Preparation of tested Bacteria solution was following: incubated Bacteria were added to 5 ml physiological saline, and then they were mashed and placed with ultrasound. The solution was fully mixed, and insoluble substances were removed. The treated solution was called the original bacterium solution. In the test, the bacteria concentration in the original bacterium solution was adjusted to […].
(§3) Tested Methods: the tested compounds were dissolved in dimethyl sulfoxide. and the solution was diluted with sterile distilled water. And the distilled solution was added to sterilized RPMI 1640 medium. The concentration of the compounds were adjusted to 256, 128, 64, 32, 16, 8, 4, 2, 1, 0.5, 0.25, 0.125 ug*ml-1. Then the adjusted solutions were inoculated with tested bacteria, and the tested systems were placed in the constant temperature oven to culture for 2-7 days. The concentration at which there was no growing of fungi was taken as the minimum inhibitory concentration (MIC).

[2] = test system: E. floccosum; experiment: as above; conditions: Epidermophyton floccosum, RPMI 1640, culture 2-7 days
Procedure: as §1, §2, §3

[3] = test system: S. schenekn; experiment: as above; conditions: RPMI 1640, culture 2-7 days
Procedure: as §1, §2, §3

[4] = test system: C. parapsilosis; experiment: as above; conditions: Lodderomyces parapsilosis, RPMI 1640, culture 2-7 days
Procedure: as §1, §2, §3

[5] = test system: C. glabrata; experiment: as above; conditions: Nakaseomyces glabratus, RPMI 1640, culture 2-7 days
Procedure: as §1, §2, §3

[6] = test system: C. albicans; experiment: as above; conditions: Candida albicans, read-out: MIC C. albicas
Procedure: as §1, §2, §3

[7] = test system: Terchoderma; experiment: as above; conditions: Trichoderma, RPMI 1640, culture 2-7 days
Procedure: as §1, §2, §3

[8] = test system: C. neoformans; experiment: as above; conditions: Cryptococcus neoformans, RPMI 1640, culture 2-7 days
Procedure: as §1, §2, §3

[9] = test system: M. gypseum; experiment: as above; conditions: Nannizzia gypsea, RPMI 1640, culture 2-7 days
Procedure: as §1, §2, §3

[10] = test system: Fusarium oxysporum vasinfectum; experiment: as above; conditions: RPMI 1640, culture 2-7 days
Procedure: as §1, §2, §3

[11] = test system: HTB-131MDA-MB-453; experiment: In vitro anticancer MTT experiment; conditions: concentration 5 ug/ml, 48 h or 72 h, read-out: inhibition ratio HTB-131MDA-MB-453
Procedure: (§4) In vitro anticancer experiments of 25 compounds as anti-bacterial and anti-cancer compounds in the patent were tested. In the test, 14 kinds of cancer cells were used as tested cancer cells. And the results obtained by MTT method were shown in table 2 (the inhibition ratio was obtained when the concentration was 5 ug/ml). Tested Cancer Cells: SGC7901, HTB-38HT-29, CRL-2233NU-398, CRL-1469PANC-1, B0192, HTB-131MDA-453, CRL-1435PC-3, FTC133, AS24391, HTB-95637. (Cancer cells were from Chinese Military Academy of Medical Sciences). Cells Culture: Culture solution was composed of RPMI 1640 medium, 10% (VAT) Fetal calf serum and 0.01% L-glutamine. Cultured cells were maintained at 37° C. in an incubator with 5% CO2. The cells at logarithmic growth phase were used in the experiment. MTT Experiment: Single cell suspension was obtained by digesting cells with 0.25% trypsin. The cells at logarithmic growth phase were collected and seeded in a 96-well plate at a concentration of 6000-7000 cells per well. After culturing for 12 h at 37° C. in the incubator with 5% CO2, the cells were again incubated with the tested compounds of various concentrations for 48 h or 72 h. Pure cultures and cells without drug were taken as blank reference and negative reference, and 8 Wells of each group were taken. Twenty microliter of MTT (5 mg/mL) was added to each well, and the mixed solutions were incubation for 4 h. The formazan product was dissolved by dimethyl sulfoxide (DMSO, 150 μL), and the optical density (O.D.) was read at 570 nm. The Inhibition Ratio was calculated by the following formula: Inhibition Ratio=(Anegative control−Asample)/(Anegative control−Ablank control)

[12] = test system: L428; experiment: In vitro anticancer MTT experiment; conditions: Homo sapiens, L-428, concentration 5 ug/ml, 48 h or 72 h, read-out: inhibition ratio L428
Procedure: as §4

[13] = test system: CRL-2233SNU-398; experiment: In vitro anticancer MTT experiment; conditions: concentration 5 ug/ml, 48 h or 72 h, read-out: inhibition ratio CRL-2233SNU-398
Procedure: as §4

[14] = test system: A375; experiment: In vitro anticancer MTT experiment; conditions: Homo sapiens, A-375, concentration 5 ug/ml, 48 h or 72 h, read-out: inhibition ratio A375
Procedure: as §4

[15] = test system: AS24391; experiment: In vitro anticancer MTT experiment; conditions: concentration 5 ug/ml, 48 h or 72 h, read-out: inhibition ratio AS24391
Procedure: as §4

[16] = test system: HTB-94; experiment: In vitro anticancer MTT experiment; conditions: concentration 5 ug/ml, 48 h or 72 h, read-out: inhibition ratio HTB-94
Procedure: as §4

[17] = test system: SGC7901; experiment: In vitro anticancer MTT experiment; conditions: Homo sapiens, SGC-7901, concentration 5 ug/ml, 48 h or 72 h, read-out: inhibition ratio SGC7901
Procedure: as §4

[18] = test system: HTB-38HT-29; experiment: In vitro anticancer MTT experiment; conditions: concentration 5 ug/ml, 48 h or 72 h, read-out: inhibition ratio HTB-38HT-29
Procedure: as §4

[19] = test system: FTC 133; experiment: In vitro anticancer MTT experiment; conditions: Homo sapiens, concentration 5 ug/ml, 48 h or 72 h, read-out: inhibition ratio FTC 133
Procedure: as §4

[20] = test system: B01092; experiment: In vitro anticancer MTT experiment; conditions: concentration 5 ug/ml, 48 h or 72 h, read-out: inhibition ratio B01092
Procedure: as §4

[21] = test system: L1210; experiment: In vitro anticancer MTT experiment; conditions: Mus musculus, concentration 5 ug/ml, 48 h or 72 h, read-out: inhibition ratio L1210
Procedure: as §4

[22] = test system: CRL-1435PC-3; experiment: In vitro anticancer MTT experiment; conditions: concentration 5 ug/ml, 48 h or 72 h, read-out: inhibition ratio CRL-1435PC-3
Procedure: as §4

[23] = test system: HTB-95637; experiment: In vitro anticancer MTT experiment; conditions: concentration 5 ug/ml, 48 h or 72 h, read-out: inhibition ratio HTB-95637
Procedure: as §4

[24] = test system: CRL-1469PANC-1; experiment: In vitro anticancer MTT experiment; conditions: concentration 5 ug/ml, 48 h or 72 h, read-out: inhibition ratio CRL-1469PANC-1
Procedure: as §4

[25] = test system: C. Krusei; experiment: In vitro antibacterial (antifungal) test, two-fold dilution MIC; conditions: Pichia kudriavzevii, RPMI 1640, culture 2-7 days
Procedure: as §1, §2, §3

[26] = test system: Setosphaeria turcica; experiment: as above; conditions: Exserohilum turcicum, RPMI 1640, culture 2-7 days
Procedure: as §1, §2, §3

[27] = test system: gibberella; experiment: as above; conditions: RPMI 1640, culture 2-7 days
Procedure: as §1, §2, §3

Structure (SMILES) | MIC [1] | MIC [2] | MIC [3] | MIC [4] | MIC [5] | MIC [6] | MIC [7] | MIC [8] | MIC [9] | MIC [10] | inhibition at 5 µg/mL [11] | inhibition at 5 µg/mL [14] | inhibition at 5 µg/mL [15] | inhibition at 5 µg/mL [16] | inhibition at 5 µg/mL [17] | inhibition at 5 µg/mL [19] | inhibition at 5 µg/mL [20] | inhibition at 5 µg/mL [21] | inhibition at 5 µg/mL [22] | inhibition at 5 µg/mL [24] | also measured
Cc1ccc2c(c1)C(Cl)/C(=C/Cl)CS2 (centres unmarked) [Compound 28, (E)-4-chloro-3-(chloromethylene)-6-methylthiochroman] | 16 µg/mL (≈ 65.3 µM) | 4 µg/mL (≈ 16.3 µM) | 16 µg/mL (≈ 65.3 µM) | 32 µg/mL (≈ 131 µM) | 32 µg/mL (≈ 131 µM) | 32 µg/mL (≈ 131 µM) | 16 µg/mL (≈ 65.3 µM) | 8 µg/mL (≈ 32.6 µM) | 16 µg/mL (≈ 65.3 µM) | 64 µg/mL (≈ 261 µM) | 56.8% | 52.7% | 72.3% | 62.2% | 63.3% | 72.5% | 46.2% | 79.4% | 65.2% | 75.3% | inhibition at 5 µg/mL [12]: 66.7%; inhibition at 5 µg/mL [13]: 56.3%; inhibition at 5 µg/mL [18]: 72.4%; inhibition at 5 µg/mL [23]: 48.2%
O=C1/C(=C/Cl)CSc2ncccc21 [Compound 18, (Z)-3-(chloromethylene)-2H-thiopyrano[2,3-b]pyridin-4(3H)-one] | 16 µg/mL (≈ 75.6 µM) | 32 µg/mL (≈ 151 µM) | 4 µg/mL (≈ 18.9 µM) | 8 µg/mL (≈ 37.8 µM) | 16 µg/mL (≈ 75.6 µM) | 8 µg/mL (≈ 37.8 µM) | 16 µg/mL (≈ 75.6 µM) | 4 µg/mL (≈ 18.9 µM) | 32 µg/mL (≈ 151 µM) | 16 µg/mL (≈ 75.6 µM) | 77.1% | 67.8% | 63.5% | 49% | 47.5% | 55% | 67.7% | 76.8% | 41% | 56.4% | MIC [25]: 32 µg/mL (≈ 151 µM); MIC [26]: 8 µg/mL (≈ 37.8 µM); inhibition at 5 µg/mL [13]: 46.6%; inhibition at 5 µg/mL [18]: 63.5%; inhibition at 5 µg/mL [23]: 56.4%
O=C1/C(=C\Cl)SCc2ccccc21 [Compound 26, (E)-3-(chloromethylene)isothiochroman-4-one] | 8 µg/mL (≈ 38 µM) | 4 µg/mL (≈ 19 µM) | 8 µg/mL (≈ 38 µM) | 32 µg/mL (≈ 152 µM) | 16 µg/mL (≈ 75.9 µM) | 2 µg/mL (≈ 9.49 µM) | 8 µg/mL (≈ 38 µM) | 4 µg/mL (≈ 19 µM) | 16 µg/mL (≈ 75.9 µM) | 4 µg/mL (≈ 19 µM) |  |  |  |  |  |  |  |  |  |  | MIC [27]: 16 µg/mL (≈ 75.9 µM); MIC [25]: 8 µg/mL (≈ 38 µM); MIC [26]: 2 µg/mL (≈ 9.49 µM)
O=C1/C(=C/Cl)CSc2ccc(Cl)cc21 [Compound 4, (Z)-6-chloro-3-(chloromethylene)thiochroman-4-one] | 8 µg/mL (≈ 32.6 µM) | 2 µg/mL (≈ 8.16 µM) | 4 µg/mL (≈ 16.3 µM) | 2 µg/mL (≈ 8.16 µM) | 16 µg/mL (≈ 65.3 µM) | 4 µg/mL (≈ 16.3 µM) | 16 µg/mL (≈ 65.3 µM) | 4 µg/mL (≈ 16.3 µM) | 16 µg/mL (≈ 65.3 µM) | 32 µg/mL (≈ 131 µM) | 57.6% | 50.4% | 46.2% | 68% | 60.8% | 46.5% | 56.7% | 82.3% | 54.2% | 68% | MIC [25]: 32 µg/mL (≈ 131 µM); MIC [26]: 8 µg/mL (≈ 32.6 µM); inhibition at 5 µg/mL [12]: 66.6%; inhibition at 5 µg/mL [13]: 75.5%; inhibition at 5 µg/mL [18]: 67.3%; inhibition at 5 µg/mL [23]: 52.8%
Cc1ccc2c(c1)C(=O)/C(=C/Br)CS2 [Compound 8, (Z)-3-(bromomethylene)-6-methylthiochroman-4-one] | 64 µg/mL (≈ 238 µM) | 64 µg/mL (≈ 238 µM) | 32 µg/mL (≈ 119 µM) | 32 µg/mL (≈ 119 µM) | 64 µg/mL (≈ 238 µM) | 32 µg/mL (≈ 119 µM) | 32 µg/mL (≈ 119 µM) | 8 µg/mL (≈ 29.7 µM) | 64 µg/mL (≈ 238 µM) | 64 µg/mL (≈ 238 µM) | 47.3% | 37.9% | 40% | 56.7% | 60.6% | 75.6% | 39% | 84.6% | 50.6% | 47.9% | MIC [25]: 64 µg/mL (≈ 238 µM); MIC [26]: 64 µg/mL (≈ 238 µM); inhibition at 5 µg/mL [12]: 44.2%; inhibition at 5 µg/mL [13]: 46.4%; inhibition at 5 µg/mL [18]: 54.9%; inhibition at 5 µg/mL [23]: 56.4%
O=C1/C(=C/Cl)CSc2sccc21 [Compound 19, (Z)-5-(chloromethylene)-5,6-dihydro-4H-thieno[2,3-b]thiopyran-4-one] | 16 µg/mL (≈ 73.8 µM) | 4 µg/mL (≈ 18.5 µM) | 32 µg/mL (≈ 148 µM) | 4 µg/mL (≈ 18.5 µM) | 32 µg/mL (≈ 148 µM) | 8 µg/mL (≈ 36.9 µM) | 4 µg/mL (≈ 18.5 µM) | 16 µg/mL (≈ 73.8 µM) | 16 µg/mL (≈ 73.8 µM) | 16 µg/mL (≈ 73.8 µM) | 47.9% | 46.2% | 53% | 48.5% | 56.4% | 54.8% | 36.5% | 76.4% | 41.3% | 67.9% | MIC [27]: 8 µg/mL (≈ 36.9 µM); MIC [26]: 32 µg/mL (≈ 148 µM); inhibition at 5 µg/mL [12]: 47.5%
